# Reference: patent EP1215202A1, “Intermediates for the preparation of possibly substituted 8-cyano-1-cyclopropyl-7-(2,8-diazabicyclo-(4.3.0)-nonan-8-yl)-6-fluoro-1,4-dihydro-4-oxo-3-quinolin carboxylic acids and their derivatives” (BAYER AG, priority 1996, dated 1997)
# Assays:
# [1] = test system: Actinomyces pyogenes Am 9602; assay: MIC (MHK), agar serial dilution on Iso-Sensitest agar; type: cell-based; details: Trueperella pyogenes, AM9602, Stamm Am 9602, 37°C, read after ca. 20 h, read-out: MHK-Werte
# [2] = test system: Streptococcus agalactiae Scc 9549; assay: as above; type: cell-based; details: SCC9549, Stamm Scc 9549, 37°C, read after ca. 20 h, read-out: MHK-Werte
# [3] = test system: Clostridium perfringens Cl 9606; assay: microbe, parasite or virus in culture; type: cell-based; details: CL9606, 20 h, read-out: MHK-Werte
# Salmonella spp. S 9659 = assay: MIC (MHK), agar serial dilution on Iso-Sensitest agar; type: cell-based; details: SPP.S9659, Stamm S 9659, 37°C, read after ca. 20 h, read-out: MHK-Werte
# Description: (§1) Die minimalen Hemmkonzentrationen (MHK) der erfindungsgemäßen Verbindungen wurden per Reihenverdünnungsverfahren auf Iso-Sensitest Agar (Oxoid) bestimmt. Für jede Prüfsubstanz wurde eine Reihe von Agarplatten hergestellt, die bei jeweils doppelter Verdünnung abfallende Konzentrationen des Wirkstoffs enthielten. Die Agarplatten wurden mit einem Multipoint-Inokulator (Denley) beimpft. Zum Beimpfen wurden Übernachtkulturen der Erreger verwandt, die zuvor so verdünnt wurden, dass jeder Impfpunkt ca. 10^4 koloniebildende Partikel enthielt. Die beimpften Agarplatten wurden bei 37°C bebrütet, und das Keimwachstum wurde nach ca. 20 Stunden abgelesen. Der MHK-Wert (µg/ml) gibt die niedrigste Wirkstoffkonzentration an, bei der mit bloßem Auge kein Wachstum zu erkennen war. Die Erfassung der MHK-Werte für Mycoplasmen erfolgte mikroskopisch nach einer Inkubationszeit von 5 bis 7 Tagen.
# (§2) In der nachstehenden Tabelle sind die MHK-Werte einer der erfindungsgemäßen Verbindungen im Vergleich zu Enrofloxacin als Referenzverbindung aufgeführt.
# Mycoplasma iowae M 95144 = assay: MIC (MHK), agar serial dilution, mycoplasma read microscopically; type: cell-based; details: Malacoplasma iowae, M95144, Stamm M 95144, read microscopically after 5 to 7 days, read-out: MHK-Werte
# in vivo = assay: in vivo; set-up: species or system Hunde (Beagle); details: dog, 5 mg/kg
# Procedure: Die verbesserten pharmakokinetischen Eigenschaften der erfindungsgemäßen Substanz aus […] Enrofloxacin in einer Serumkinetik-Studie an Hunden gezeigt werden. Die Substanzen wurden in einer Dosierung von 5 mg/kg Körpergewicht an jeweils 6 Hunden […] Beagle geprüft. Dabei […].), intramuskulär (i. m.) und oral in […] Cross-Over-Anordnung zur Anwendung. Bei allen Applikationsarten konnte gezeigt werden, dass mit der erfindungsgemäßen Substanz aus […]1/2) und […] und somit eine größere Substanzmenge im Organismus zur […] unter der Serumspiegelkurve, AUC0-24).
# [4] = test system: Streptococcus suis Scc 9593; assay: MIC (MHK), agar serial dilution on Iso-Sensitest agar; type: cell-based; details: SCC9593, Stamm Scc 9593, 37°C, read after ca. 20 h, read-out: MHK-Werte
# [5] = test system: Fusobacterium necrophorum Ao 9620; assay: as above; type: cell-based; details: AO9620, Stamm Ao 9620, 37°C, read after ca. 20 h, read-out: MHK-Werte
# [6] = test system: Pseudomonas aeruginosa P 9503; assay: as above; type: cell-based; details: P9503, Stamm P 9503, 37°C, read after ca. 20 h, read-out: MHK-Werte
# [7] = test system: Bordetella bronchiseptica B 9610; assay: as above; type: cell-based; details: B9610, Stamm B 9610, 37°C, read after ca. 20 h, read-out: MHK-Werte
# E. coli Ec 9658 = assay: as above; type: cell-based; details: Escherichia coli, EC9658, Stamm Ec 9658, 37°C, read after ca. 20 h, read-out: MHK-Werte
# [8] = test system: Actinobacillus pleuropneumoniae App 06/94; assay: as above; type: cell-based; details: APP06/94, Stamm App 06/94, 37°C, read after ca. 20 h, read-out: MHK-Werte
# Mycoplasma bovis M 9548 = assay: MIC (MHK), agar serial dilution, mycoplasma read microscopically; type: cell-based; details: Mycoplasmopsis bovis, M9548, Stamm M 9548, read microscopically after 5 to 7 days, read-out: MHK-Werte
# Description: as §1, with “Der MHK-Wert (µg/ml) gibt die niedrigste Wirkstoffkonzentration an, bei der mit bloßem Auge kein Wachstum zu erkennen war. Die Erfassung der MHK-Werte für Mycoplasmen erfolgte mikroskopisch nach einer Inkubationszeit von 5 bis 7 Tagen.” left out
# as §2
# [9] = test system: Mycoplasma hyorhinis M 9557; assay: as above; type: cell-based; details: M9557, Stamm M 9557, read microscopically after 5 to 7 days, read-out: MHK-Werte
SMILES,MIC [1] [µg/mL],MIC [2] [µg/mL],MIC [3] [µg/mL],MIC (Salmonella spp. S 9659) [µg/mL],MIC (Mycoplasma iowae M 95144) [µg/mL],AUC(0-t) at 24 h (in vivo; im) [ng·h/mL],Cmax (in vivo; im) [ng/mL],MRT (in vivo; im) [h],half-life (in vivo; im) [h],AUC(0-t) at 24 h (in vivo; iv) [ng·h/mL],MRT (in vivo; iv) [h],half-life (in vivo; iv) [h],AUC(0-t) at 24 h (in vivo; po) [ng·h/mL],Cmax (in vivo; po) [ng/mL],MRT (in vivo; po) [h],half-life (in vivo; po) [h],MIC [4] [µg/mL],MIC [5] [µg/mL],MIC [6] [µg/mL],further results
"N#Cc1c(N2C[C@@H]3CCCN[C@@H]3C2)c(F)cc2c(=O)c(C(=O)O)cn(C3CC3)c12 [Beispiel 1, 8-Cyan-1-cyclopropyl-7-((1S,6S)-2,8-diazabicyclo[4.3.0]nonan-8-yl)-6-fluor-1,4-dihydro-4-oxo-3-chinolincarbonsäure]",0.25,0.03,0.25,0.06,0.06,19800,2400,8.5,6.9,20000,11.5,10.5,17400,1300,14.7,9.5,0.06,0.03,0.25,
CCN1CCN(c2cc3c(cc2F)c(=O)c(C(=O)O)cn3C2CC2)CC1 [Enrofloxacin],1,0.5,4,0.5,0.5,8400,2100,3.9,2.9,10400,4.2,3.7,7000,1000,7.3,4.3,0.5,4,1,MIC [7]: 0.5 µg/mL; MIC (E. coli Ec 9658): 0.03 µg/mL; MIC [8]: 0.06 µg/mL; MIC (Mycoplasma bovis M 9548): 0.25 µg/mL; MIC [9]: 0.06 µg/mL
